For data set [1] the following is noted: long-term treatment; cited from earlier work.
For data set [2] the following is noted: cited from earlier work.
For data set [3] the following is noted: cited from earlier work. The source holds these as a separate data set.

For the compound `CC(=O)Oc1ccccc1C(=O)O` [aspirin, acetyl salicylic acid], under “normal buccal pH, no buffer added”, the Buccal absorption was 5%. Besides, the “absorbed (buccal)” value (pH of 2.5, buffer solution added) came out at 70%. Moreover, in data set [1], the severe gastrointestinal complication result is “up to 30%”. In data set [2], the “acetyl salicylic acid reaching the stomach inactivated through deacetylation” value was “At least thirty two”. For the same compound, the solubility in water result in data set [3] is “does not dissolve in water”.

Values taken from patent US20100255086A1, “Method for oral mucosal absorption of acetyl salycylic acid” (priority 2009, published 2010).
